Laboratory results taken from ChEMBL document CHEMBL3046525, “In vitro antiproliferative activity of 11-aminoalkylamino-substituted 5H-indolo[2,3-b]quinolines; improving activity of neocryptolepines by installation of ester substituent” (Med Chem Res, 2013).

Test system: not listed separately
Experiment: Selectivity ratio of IC50 for mouse BALB/3T3 cells to IC50 for human HCT116 cells
Format: cell-based, HCT-116
Details: BALB/3T3 cells versus HCT116 cells, read-out: Ratio IC50
COC(=O)c1ccc2c(c1)c(NCCCN)c1c3ccccc3nc-1n2C gave a selectivity ratio of 4.
Molecule COC(=O)c1ccc2nc3n(C)c4ccccc4c(NCCCO)c-3c2c1 has a selectivity ratio of 4.
COC(=O)c1ccc2nc3n(C)c4ccccc4c(NCCCN)c-3c2c1 gave a selectivity ratio of 4.
COC(=O)c1ccc2nc3n(C)c4ccccc4c(N4CCOCC4)c-3c2c1 gave a selectivity ratio of 4.
Molecule COC(=O)c1ccc2nc3n(C)c4ccccc4c(N4CCCN(C)CC4)c-3c2c1 has a selectivity ratio of 4.
COC(=O)c1ccc2nc3n(C)c4ccccc4c(NCCCCN)c-3c2c1 showed a selectivity ratio of 4.
For COC(=O)c1ccc2nc3n(C)c4ccccc4c(NCCN(C)C)c-3c2c1, the selectivity ratio was 4.
Molecule COC(=O)c1ccc2nc3n(C)c4ccccc4c(NCCCN(C)C)c-3c2c1 has a selectivity ratio of 4.
For COC(=O)c1ccc2nc3n(C)c4ccc(C(=O)OC)cc4c(NCCCN)c-3c2c1, the selectivity ratio was 28.
For COC(=O)c1ccc2nc3n(C)c4ccc(Br)cc4c(NCCCN)c-3c2c1, the selectivity ratio was 4.
COC(=O)c1ccc2c(c1)c(NCCCN)c1c3cc(Br)ccc3nc-1n2C showed a selectivity ratio of 4.
Work on Cn1c2nc3ccc(Br)cc3c-2c(NCCCN)c2cc(Cl)ccc21 yielded a selectivity ratio of 4.

Test system: BALB/3T3
Experiment: Cytotoxicity against Mus musculus (mouse) BALB/3T3 cells after 72 hr by SRB assay
Format: cell-based
Details: BALB/3T3, 72 h
With COC(=O)c1ccc2nc3n(C)c4ccc(Br)cc4c(NCCCN)c-3c2c1 the IC50 was 833 nM.

Test system: MV4-11
Experiment: Antiproliferative activity against Homo sapiens (human) MV411 cells after 72 hr by MTT assay
Format: functional, cell-based
Details: MV4-11, 72 h
For Cn1c2nc3ccccc3c-2c(NCCCO)c2ccccc21, the IC50 was 170 nM.
CN1CCCN(c2c3c4ccccc4nc-3n(C)c3ccccc23)CC1 gave an IC50 of 7170 nM.
Molecule Cn1c2nc3ccccc3c-2c(NCCCCN)c2ccccc21 has an IC50 of 100 nM.
COC(=O)c1ccc2nc3n(C)c4ccc(Br)cc4c(NCCCN)c-3c2c1 showed an IC50 of 56 nM.
Work on Cn1c2nc3ccc(C(=O)O)cc3c-2c(NCCCN)c2ccccc21 yielded an IC50 of over 25000 nM.
CN(C)CCNc1c2c3cc(C(=O)O)ccc3nc-2n(C)c2ccccc12 showed an IC50 of 9280 nM.
CN(C)CCCNc1c2c3cc(C(=O)O)ccc3nc-2n(C)c2ccccc12 showed an IC50 of over 25000 nM.
With Cn1c2nc3ccc(C(=O)O)cc3c-2c(NCCCO)c2ccccc21 the IC50 was over 25000 nM.

Test system: A549
Experiment: Antiproliferative activity against Homo sapiens (human) A549 cells after 72 hr by SRB assay
Format: functional, cell-based
Details: A549, 72 h
With COC(=O)c1ccc2nc3n(C)c4ccc(Br)cc4c(NCCCN)c-3c2c1 the IC50 was 194 nM.
